Patent US6514509B2, “Method for production on the spot of a disinfectant peracetic acid system” (Farmec S.n.c. di Tabasso Renato & C., priority 1998, dated 2003)
Where two headings read alike, the source gives them in different places.

Assays:
[1] = tested on: spores of bacillus subtilis; settings: alcohol at concentrations of about 20% (or higher); cited from earlier work
[2] = properties of commercial hydrogen peroxide; cited from earlier work
[3] = properties of commercial hydrogen peroxide; cited from earlier work; remark: listed apart in the source
[4] = properties of commercial hydrogen peroxide; cited from earlier work; remark: listed apart in the source
[5] = properties of commercial hydrogen peroxide; cited from earlier work; remark: listed apart in the source
[6] = pH (10% w/w in deionized water) at 20° C.; assay type: physicochemical
Experimental: (§1) The above listed components were weighed separately, taking particular care with the concentrated sulfuric acid, which must be handled under a hood and with protection gloves. The components were mixed in the above listed sequence, making sure that the component being dealt with was perfectly mixed before adding the next one. After addition of the components, the mixture was stirred for 15 minutes, left to rest for 10 minutes and a sample was retrieved for checking its chemical and physical properties.
(§2) The following chemical-physical properties were measured: […]

[7] = Specific gravity of the solutions at 20° C.; assay type: physicochemical
Experimental: as §1, §2

Miscibility in water = assay type: physicochemical
Experimental: as §1, §2

Enterovirus = settings: cited from earlier work
[8] = cited from earlier work
Bacterial spores = settings: cited from earlier work
Poliovirus = settings: cited from earlier work
[9] = tested on: Gram + and Gram − bacteria, fungi and yeasts; settings: cited from earlier work
[10] = cited from earlier work; remark: listed apart in the source

In the case of `CCO` [Ethyl alcohol], the “effect with PAA as regards its germicidal activity” value [1] is given as “synergistic effect”.
In the case of `OO` [Hydrogen peroxide, 35% w/w, Hydrogen peroxide], the “Specific gravity at 20° C.” value [2] is given as 1.132 g/mL, the “Vapor pressure at 20° C.” value [3] is given as 17-20 mbar and the Miscibility in water [4] is given as “full”. The “pH (10% w/w in deionized water) at 20° C.” value [5] was 2.00-3.00 U of pH.
With `OO` [Hydrogen peroxide, 50% w/w, Hydrogen peroxide] the “pH (10% w/w in deionized water) at 20° C.” value [6] was 2.00-3.00 U of pH, the “Specific gravity at 20° C.” value [7] was 1.280 g/mL and the Miscibility in water (Miscibility in water) was “full”.
In the case of `CC(C)O` [Isopropyl alcohol], the “effect with PAA as regards its germicidal activity” value [1] is listed as “synergistic effect”.
In the case of `CC(=O)OO` [PAA, peracetic acid], the Contact times (Enterovirus; 2000 ppm PAA) is listed as 10 to 30 min, the “Ppm (%) of PAA” value (Enterovirus) is listed as 2000 (0.2%) Ppm and the solubility in water [8] is listed as “infinite”. The “Effect on medical and surgical instruments” value (Bacterial spores) was “Sterilization”, the “Ppm (%) of PAA” value (Bacterial spores) was 500-30,000 Ppm and the Contact times (Bacterial spores; lower end of the 500-30,000 ppm range) was 15 min. For the same compound, the Contact times (Bacterial spores; upper end of the 500-30,000 ppm range) was 0.25 min, the Contact times (Poliovirus) was 15 min and the “Ppm (%) of PAA” value (Poliovirus) was 1500-2250 Ppm. For the same compound, the Contact times ([9]; 100 ppm PAA) was at most 5 min, the “Effect on medical and surgical instruments” value ([9]; 100 ppm PAA) was “Low-level disinfection” and the Contact times ([9]; in the presence of organic material, 200-500 ppm PAA) was at most 5 min. The “Effect on medical and surgical instruments” value ([9]; in the presence of organic material) was “Low-level disinfection”, the “Ppm (%) of PAA” value ([9]; inactivated and killed in the presence of organic material) was 200-500 Ppm and the “Ppm (%) of PAA” value ([9]; microorganisms are inactivated and killed) was 100 (0.01%) Ppm. The “loss of active ingredient per month” value ([10]; 40% w/w solution, per month) was 1 to 2%.
In the case of `OO` [hydrogen peroxide], the “loss of active ingredient per year” value ([10]; hydrogen peroxide (30 to 90%), per year) is listed as “less than 1%”.
